# Ends that are not written are not given here.
# How the values were obtained:
# [1] = test system: antigen peptide (peptide-conjugated BSA); test: Antibody titer in blood of immunized mice by ELISA against antigen peptide; assay type: in vivo, mouse; conditions: Example 1: C57BL/6J mice, KLH-antigen complex s.c., Freund's adjuvant, serum 2 weeks after booster (total 4 weeks)
# Excerpt: (§1) C57BL/6J male mice aged 8 weeks were purchased from Charles River Laboratories Japan, Inc. After the delivery, the mice were reared in an environment where the room temperature and the light and dark cycles were maintained, and were provided with feed and water ad libitum. As a candidate sequence leading to activation of helper T cells by MHC class II, two peptide sequences: MTGSAADTHR (SEQ ID NO: 4; hereinafter, a peptide composed of the amino acid sequence is referred to as “MTG peptide”) and RRRQASPPRR (SEQ ID NO: 5; hereinafter, a peptide composed of the amino acid sequence is referred to as “RRR peptide”), each of which is not common to VASH1 in the VASH2 sequence were selected (FIG. 1). With respect to these peptides, peptide vaccines using KLH as a carrier were constructed. Note that for the conjugation of each peptide with KLH, a glutaraldehyde method was used. When the amount of the peptide introduced into KLH was measured for each of the obtained peptide vaccines, the amount of MTG was 66 to 70 nmol/mg of the conjugate, and the amount of RRR was 62 to 76 nmol/mg of the conjugate. Subsequently, 5 μg of KLH (control) and 20 μg of each of the KLH-antigen complexes were prepared with physiological saline so that the total amount was 50 μL, respectively, whereby KLH-mixed solutions were obtained. To each of the KLH-mixed solutions (50 μL), an equal amount of complete Freund's adjuvant was added. The obtained mixture was subcutaneously administered to the mice, whereby initial immunization was carried out. After 2 weeks from the administration, booster immunization was carried out by subcutaneously administering a mixture of each of the KLH-mixed solutions (50 μL) and an equal amount of incomplete Freund's adjuvant to the mice. Further, after 2 weeks from the booster immunization (after a total of 4 weeks), an increase in the antibody titer in the blood of each of the immunized mice was verified by ELISA.
# The measurement of the antibody titer by ELISA was carried out as follows. After 2 weeks from the booster immunization (after a total of 4 weeks), the blood was collected from the facial vein of each of the immunized mice, and the serum separated from the blood was subjected to ELISA. By using 50 mM carbonate buffer, peptide-conjugated BSA was prepared at 10 μg/mL, and further a recombinant VASH2 protein was prepared at 1 μg/mL, each of which was added at 50 μL/well, and the resultant was left to stand overnight at 4° C. After the solution in each well was removed, 5% skim milk was added at 150 μL/well. […] After 30 minutes, the reaction was stopped by adding 0.5 N H2SO4 at 50 μL/well, and an absorbance (450 nm) was measured using a microplate reader.
# [2] = test system: recombinant human VASH2 protein; test: Antibody titer in blood of immunized mice by ELISA against recombinant VASH2 protein; assay type: in vivo, mouse; conditions: Example 1: C57BL/6J mice, KLH-antigen complex s.c., Freund's adjuvant, serum 2 weeks after booster (total 4 weeks)
# Excerpt: as §1
# The measurement of the antibody titer by ELISA was carried out as follows. After 2 weeks from the booster immunization (after a total of 4 weeks), the blood was collected from the facial vein of each of the immunized mice, and the serum separated from the blood was subjected to ELISA. By using 50 mM carbonate buffer, peptide-conjugated BSA was prepared at 10 μg/mL, and further a recombinant VASH2 protein was prepared at 1 μg/mL, each of which was added at 50 μL/well, and the resultant was left to stand overnight at 4° C. After the solution in each well was removed, 5% skim milk was added at 150 μL/well. After the resultant was left to stand at room temperature for 2 hours, the solution was removed, and subsequently, a serum sample diluted by 20 to 62500 times with 5% skim milk was added at 50 μL/well, and the resultant was left to stand overnight at 4° C. Subsequently, washing was carried out with PBS (200 μL/well×6 times), and thereafter, a secondary antibody (HRP-conjugated anti-Mouse IgG) diluted by 1000 times with 5% skim milk was added at 50 μL/well. After the resultant was left to stand at room temperature for 3 hours, washing was carried out with PBS (200 μL/well×3 times). Thereafter, tetramethylbenzidine (TMB) was added at 50 μL/well, and the resultant was left to stand at room temperature under light shielding. After 30 minutes, the reaction was stopped by adding 0.5 N H2SO4 at 50 μL/well, and an absorbance (450 nm) was measured using a microplate reader.
# [3] = test system: Lewis lung cancer cells (LLC); test: Subcutaneous implant model, tumor growth inhibitory effect (LLC); assay type: in vivo, mouse; conditions: immunized C57BL/6J mice, cells implanted s.c. on day 29, measured 14 days after implantation
# Description: (§2) After 2 weeks from the administration of each peptide vaccine and incomplete Freund's adjuvant in Example 1 (on day 29 after the initial peptide vaccine administration), mouse-derived tumor cells were implanted in an immunized mouse, whereby a subcutaneous implant model was prepared. Specifically, mouse lung cancer cells (Lewis lung cancer cells (LLC)) or mouse melanoma cells (B16F1) (all have C57BL/6J as a genetic background) cultured in a RPMI+10% FBS medium were collected by centrifugation, and a cell suspension (1.0×10^8 cells/mL) was prepared with a serum-free medium, and 0.1 mL (1.0×10^7 cells/animal) of the cell suspension was implanted in a right axillary subcutaneous region of a mouse using a 27G injection needle and a syringe, whereby a subcutaneous implant model of tumor cells was prepared.
# [4] = test system: mouse melanoma cells (B16F1); test: Subcutaneous implant model, tumor growth inhibitory effect (B16F1); assay type: in vivo; conditions: immunized C57BL/6J mice, cells implanted s.c. on day 29, measured 14 days after implantation
# Description: as §2
substance,measurement,setting,value
RRR peptide vaccine: RRR peptide RRRQASPPRR (SEQ ID NO: 5) conjugated with KLH as carrier by a glutaraldehyde method (also: conjugated with KLH by glutaraldehyde),antibody titer against the antigen peptide,[1],significant concentration-dependent increase
same,antibody titer against the recombinant human VASH2 protein,[2],a significant increase in the antibody titer was not confirmed
same,"tumor size (tumorigenesis), Lewis lung cancer cells",[3],could not inhibit tumorigenesis
same,"tumor size (tumorigenesis), B16F1 melanoma cells",[4],could not inhibit tumorigenesis

# Source: patent US11712466B2, “Vaccine composition” (TOHOKU UNIVERSITY, priority 2017, dated 2023)
